According to ChEMBL document CHEMBL1201862, “PubChem BioAssay data set” (2004):
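Five concentrations, 48 hours, 96-well plates. GI50 = concentration required for 50% inhibition of growth.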 Calls of active or inactive are those of the source. Cut-off read from the data, not from the text of the source: active = GI50 up to about 1.1 µM and inactive = higher.

Assays:
Assay in all cases: growth of human tumour cells (NCI), 48 h
A549 = system: A549
DMS-114 = system: DMS-114
SK-MEL-28 = system: SK-MEL-28
SNB-75 = system: SNB-75
OVCAR-4 = system: OVCAR-4
UO-31 = system: UO-31
HCT-15 = system: HCT-15
SK-OV-3 = system: SK-OV-3
Malme-3M = system: Malme-3M
COLO 205 = system: COLO 205
K562 = system: K562
TK-10 = system: TK-10
CCRF-CEM = system: CCRF-CEM
HCC 2998 = system: HCC 2998
RPMI-8226 = system: RPMI-8226
M19-MEL = system: M19-MEL
HOP-62 = system: HOP-62
OVCAR-5 = system: OVCAR-5
HCT-116 = system: HCT-116
UACC-62 = system: UACC-62
NCI-H522 = system: NCI-H522
SK-MEL-2 = system: SK-MEL-2
MOLT-4 = system: MOLT-4
LOX IMVI = system: LOX IMVI
NCI-H460 = system: NCI-H460
OVCAR-3 = system: OVCAR-3
KM12 = system: KM12
ACHN = system: ACHN
IGROV-1 = system: IGROV-1
CAKI-1 = system: CAKI-1
SF-295 = system: SF-295
A498 = system: A498
M14 = system: M14
HOP-92 = system: HOP-92
DMS-273 = system: DMS-273
RXF 393 = system: RXF 393
UACC-257 = system: UACC-257
786-0 = system: 786-0
NCI-H23 = system: NCI-H23
EKVX = system: EKVX
LXFL 529 = system: LXFL 529
HT-29 = system: HT-29
SF-268 = system: SF-268
DLD-1 = system: DLD-1
SNB-19 = system: SNB-19
KM-20L2 = system: KM-20L2
SNB-78 = system: SNB-78
U-251 = system: U-251
SR = system: SR
SK-MEL-5 = system: SK-MEL-5
RXF 631 = system: RXF 631
OVCAR-8 = system: OVCAR-8
SN12C = system: SN12C
HL-60 = system: HL-60
HOP-18 = system: HOP-18
NCI-H226 = system: NCI-H226
SF-539 = system: SF-539
SW-620 = system: SW-620

Question: What does the source list for `CC(=O)NC1C(OCc2ccccc2)OC(COC(=O)CCCCCCCCCCNC(=O)CCNc2ccc([N+](=O)[O-])c3[nH]c4ccc(O)cc4c(=O)c23)C(O)C1OC(C)C(=O)N[C@H](C(=O)N[C@H](CCC(=O)O)C(N)=O)C(C)C` (stereo partly drawn)?
Answer: GI50 (A549): > 100 µM (inactive); GI50 (DMS-114): 36.2 µM (inactive); GI50 (SK-MEL-28): > 100 µM (inactive); GI50 (SNB-75): 17.1 µM (inactive); GI50 (OVCAR-4): 35.4 µM (inactive); GI50 (UO-31): 55.2 µM (inactive); GI50 (HCT-15): > 100 µM; GI50 (SK-OV-3): 84.1 µM (inactive); GI50 (Malme-3M): 22.9 µM (inactive); GI50 (COLO 205): 32.4 µM (inactive); GI50 (K562): 76.9 µM (inactive); GI50 (TK-10): > 100 µM (inactive); GI50 (CCRF-CEM): 33 µM (inactive); GI50 (HCC 2998): 23.8 µM (inactive); GI50 (RPMI-8226): 19.2 µM (inactive); GI50 (M19-MEL): 79.1 µM (inactive); GI50 (HOP-62): > 100 µM (inactive); GI50 (OVCAR-5): 54.3 µM (inactive); GI50 (HCT-116): 53.7 µM (inactive); GI50 (UACC-62): 85.3 µM (inactive); GI50 (NCI-H522): 17.4 µM (inactive); GI50 (SK-MEL-2): 28.8 µM (inactive); GI50 (MOLT-4): 43.2 µM (inactive); GI50 (LOX IMVI): 28.8 µM (inactive); GI50 (NCI-H460): > 100 µM (inactive); GI50 (OVCAR-3): 84.9 µM (inactive); GI50 (KM12): 63.4 µM (inactive); GI50 (ACHN): 60.7 µM (inactive); GI50 (IGROV-1): > 100 µM (inactive); GI50 (CAKI-1): > 100 µM (inactive); GI50 (SF-295): > 100 µM (inactive); GI50 (A498): 69.8 µM (inactive); GI50 (M14): 48.5 µM (inactive); GI50 (HOP-92): 28.7 µM (inactive); GI50 (DMS-273): 40.3 µM (inactive); GI50 (RXF 393): 69.3 µM (inactive); GI50 (UACC-257): > 100 µM (inactive); GI50 (786-0): 76 µM (inactive); GI50 (NCI-H23): > 100 µM (inactive); GI50 (EKVX): 96.8 µM (inactive); GI50 (LXFL 529): 81.8 µM (inactive); GI50 (HT-29): 56.2 µM (inactive); GI50 (SF-268): > 100 µM (inactive); GI50 (DLD-1): 33.5 µM (inactive); GI50 (SNB-19): 46.9 µM (inactive); GI50 (KM-20L2): 25.4 µM (inactive); GI50 (SNB-78): 45.7 µM (inactive); GI50 (U-251): 44.4 µM (inactive); GI50 (SR): 20 µM (inactive); GI50 (SK-MEL-5): > 100 µM (inactive); GI50 (RXF 631): 90.6 µM (inactive); GI50 (OVCAR-8): > 100 µM (inactive); GI50 (SN12C): 64 µM (inactive); GI50 (HL-60): 63.4 µM (inactive); GI50 (HOP-18): > 100 µM (inactive); GI50 (NCI-H226): 36.3 µM (inactive); GI50 (SF-539): 40.1 µM (inactive)

Question: For `COC(=O)CCc1cccnc1/C=N/O`, which GI50 (A549) is on record?
Answer: Its GI50 is > 100 µM (inactive).

Question: What about the GI50 (DMS-114) of the same compound?
Answer: The GI50 was > 100 µM (inactive).

Question: And the GI50 (SK-MEL-28)?
Answer: The GI50 was > 100 µM (inactive).

Question: And the GI50 (SNB-75)?
Answer: The GI50 was > 100 µM (inactive).

Question: And the GI50 (OVCAR-4)?
Answer: Its GI50 is > 100 µM (inactive).

Question: And the GI50 (UO-31)?
Answer: The GI50 was > 100 µM (inactive).

Question: And the GI50 (HCT-15)?
Answer: Its GI50 is greater than 100 µM.

Question: What about the GI50 (SK-OV-3) of the same compound?
Answer: The GI50 was > 100 µM (inactive).

Question: And the GI50 (Malme-3M)?
Answer: Its GI50 is > 100 µM (inactive).

Question: What about the GI50 (COLO 205) of the same compound?
Answer: Its GI50 is > 100 µM (inactive).

Question: What about the GI50 (K562) of the same compound?
Answer: The GI50 was > 100 µM (inactive).

Question: And the GI50 (TK-10)?
Answer: Its GI50 is 55.7 µM (inactive).

Question: What about the GI50 (CCRF-CEM) of the same compound?
Answer: Its GI50 is 96.4 µM (inactive).

Question: And the GI50 (M19-MEL)?
Answer: The GI50 was > 100 µM (inactive).

Question: What about the GI50 (HOP-62) of the same compound?
Answer: Its GI50 is > 100 µM (inactive).

Question: And the GI50 (OVCAR-5)?
Answer: The GI50 was > 100 µM (inactive).

Question: And the GI50 (HCT-116)?
Answer: Its GI50 is > 100 µM (inactive).

Question: What about the GI50 (UACC-62) of the same compound?
Answer: Its GI50 is > 100 µM (inactive).

Question: And the GI50 (NCI-H522)?
Answer: Its GI50 is > 100 µM (inactive).

Question: What about the GI50 (SK-MEL-2) of the same compound?
Answer: Its GI50 is > 100 µM (inactive).

Question: And the GI50 (MOLT-4)?
Answer: Its GI50 is > 100 µM (inactive).

Question: And the GI50 (LOX IMVI)?
Answer: Its GI50 is > 100 µM (inactive).

Question: And the GI50 (NCI-H460)?
Answer: The GI50 was 27.4 µM (inactive).

Question: And the GI50 (OVCAR-3)?
Answer: Its GI50 is > 100 µM (inactive).

Question: And the GI50 (KM12)?
Answer: Its GI50 is > 100 µM (inactive).

Question: What about the GI50 (ACHN) of the same compound?
Answer: Its GI50 is > 100 µM (inactive).

Question: What about the GI50 (SW-620) of the same compound?
Answer: Its GI50 is 87.5 µM (inactive).

Question: And the GI50 (IGROV-1)?
Answer: The GI50 was > 100 µM (inactive).

Question: What about the GI50 (CAKI-1) of the same compound?
Answer: Its GI50 is > 100 µM (inactive).

Question: And the GI50 (SF-295)?
Answer: Its GI50 is > 100 µM (inactive).

Question: And the GI50 (A498)?
Answer: The GI50 was > 100 µM (inactive).

Question: And the GI50 (M14)?
Answer: The GI50 was > 100 µM (inactive).

Question: And the GI50 (HOP-92)?
Answer: The GI50 was > 100 µM (inactive).

Question: And the GI50 (DMS-273)?
Answer: Its GI50 is > 100 µM (inactive).

Question: And the GI50 (RXF 393)?
Answer: Its GI50 is > 100 µM (inactive).

Question: And the GI50 (UACC-257)?
Answer: Its GI50 is > 100 µM (inactive).

Question: And the GI50 (786-0)?
Answer: Its GI50 is > 100 µM (inactive).

Question: What about the GI50 (NCI-H23) of the same compound?
Answer: Its GI50 is > 100 µM (inactive).

Question: What about the GI50 (EKVX) of the same compound?
Answer: Its GI50 is > 100 µM (inactive).

Question: What about the GI50 (LXFL 529) of the same compound?
Answer: Its GI50 is > 100 µM (inactive).

Question: And the GI50 (HT-29)?
Answer: Its GI50 is > 100 µM (inactive).

Question: What about the GI50 (SF-268) of the same compound?
Answer: The GI50 was > 100 µM (inactive).

Question: What about the GI50 (DLD-1) of the same compound?
Answer: Its GI50 is > 100 µM (inactive).

Question: What about the GI50 (SNB-19) of the same compound?
Answer: The GI50 was > 100 µM (inactive).

Question: And the GI50 (KM-20L2)?
Answer: Its GI50 is > 100 µM (inactive).

Question: And the GI50 (SNB-78)?
Answer: The GI50 was > 100 µM (inactive).

Question: And the GI50 (U-251)?
Answer: The GI50 was > 100 µM (inactive).

Question: And the GI50 (SR)?
Answer: The GI50 was > 100 µM (inactive).

Question: What about the GI50 (SK-MEL-5) of the same compound?
Answer: The GI50 was > 100 µM (inactive).

Question: And the GI50 (RXF 631)?
Answer: The GI50 was > 100 µM (inactive).

Question: What about the GI50 (OVCAR-8) of the same compound?
Answer: The GI50 was > 100 µM (inactive).

Question: What about the GI50 (SN12C) of the same compound?
Answer: Its GI50 is > 100 µM (inactive).

Question: What about the GI50 (HL-60) of the same compound?
Answer: Its GI50 is > 100 µM (inactive).

Question: What about the GI50 (HOP-18) of the same compound?
Answer: The GI50 was > 100 µM (inactive).

Question: And the GI50 (NCI-H226)?
Answer: The GI50 was > 100 µM (inactive).

Question: And the GI50 (SF-539)?
Answer: Its GI50 is > 100 µM (inactive).
